# Laboratory results reported in US20240376163A1, “PEPTIDE FOR INHIBITING CALCINEURIN AND USE THEREOF” (Seoul National University R&DB Foundation, priority 2023, published 2024).
# Test system: Jurkat T cells
# Experiment: mRNA sequencing of activated Jurkat T cells
# Type: cell-based, human
sequence,measurement,setting,value
PEITVTPPTP [CABIN1-L-1-2],CRIM1 FPKM,P + I,0.333 FPKM
same,CRTAM FPKM,P + I,9.51 FPKM
same,CSF1 FPKM,P + I,2.594 FPKM
same,CSF2 FPKM,P + I,0.314 FPKM
same,CST7 FPKM,P + I,3.175 FPKM
same,CXCL8 FPKM,P + I,3.327 FPKM
same,CXCR3 FPKM,P + I,1.803 FPKM
same,DSTYK FPKM,P + I,3.595 FPKM
same,FBXO34 FPKM,P + I,18.386 FPKM
same,FMNL2 FPKM,P + I,3.019 FPKM
same,FOSL2 FPKM,P + I,2.362 FPKM
same,FOXO1 FPKM,P + I,3.736 FPKM
same,FXYD5 FPKM,P + I,42.856 FPKM
same,FYN FPKM,P + I,15.512 FPKM
same,GFOD1 FPKM,P + I,6.312 FPKM
same,GRK5 FPKM,P + I,8.975 FPKM
same,GTDC1 FPKM,P + I,5.144 FPKM
same,IL2 FPKM,P + I,12.964 FPKM
same,IL3 FPKM,P + I,6.298 FPKM
same,IL21R FPKM,P + I,5.255 FPKM
same,IL21R-AS1 FPKM,P + I,3.991 FPKM
same,IQCJ-SCHIP1 FPKM,P + I,1.234 FPKM
same,IRF4 FPKM,P + I,2.092 FPKM
same,IRF8 FPKM,P + I,1.914 FPKM
same,ISM1 FPKM,P + I,3.737 FPKM
same,JAK2 FPKM,P + I,8.45 FPKM
same,KCNK1 FPKM,P + I,13.139 FPKM
same,KCNK5 FPKM,P + I,4.904 FPKM
same,LAMP3 FPKM,P + I,9.828 FPKM
same,LAX1 FPKM,P + I,7.578 FPKM
same,LIF FPKM,P + I,0.231 FPKM
same,LOC729603 FPKM,P + I,3.329 FPKM
same,LRRC8B FPKM,P + I,4.298 FPKM
same,LTBP4 FPKM,P + I,9.568 FPKM
same,MAP2K3 FPKM,P + I,43.237 FPKM
same,MIR6775 FPKM,P + I,21.57 FPKM
same,MIR6821 FPKM,P + I,25.116 FPKM
same,MYO1D FPKM,P + I,5.995 FPKM
same,NDFIP1 FPKM,P + I,24.432 FPKM
same,NFATC1 FPKM,P + I,3.916 FPKM
same,NPDC1 FPKM,P + I,5.64 FPKM
same,NR4A2 FPKM,P + I,0.356 FPKM
same,NTRK1 FPKM,P + I,1.657 FPKM
same,PAM FPKM,P + I,1.934 FPKM
same,PDGFA FPKM,P + I,8.169 FPKM
same,PELI1 FPKM,P + I,8.465 FPKM
same,PHACTR2 FPKM,P + I,2.791 FPKM
same,PHEX FPKM,P + I,0.786 FPKM
same,PIM3 FPKM,P + I,72.895 FPKM
same,PKIA FPKM,P + I,18.138 FPKM
same,PLK3 FPKM,P + I,7.036 FPKM
same,PLS3 FPKM,P + I,0.37 FPKM
same,POU2AF1 FPKM,P + I,2.971 FPKM
same,PPIF FPKM,P + I,106.533 FPKM
same,PTPN6 FPKM,P + I,20.806 FPKM
same,PTPN22 FPKM,P + I,5.119 FPKM
same,RDH10 FPKM,P + I,5.524 FPKM
same,REL FPKM,P + I,5.699 FPKM
same,RGS16 FPKM,P + I,5.595 FPKM
same,SCHIP1 FPKM,P + I,1.333 FPKM
same,SERPINB2 FPKM,P + I,14.103 FPKM
same,SHC4 FPKM,P + I,0.686 FPKM
same,SLAMF1 FPKM,P + I,0.275 FPKM
same,SLC35E4 FPKM,P + I,1.517 FPKM
same,SORBS1 FPKM,P + I,0.511 FPKM
same,SPRY1 FPKM,P + I,4.901 FPKM
same,STAT5A FPKM,P + I,3.055 FPKM
same,TAGAP FPKM,P + I,8.731 FPKM
same,TBC1D4 FPKM,P + I,13.191 FPKM
same,TBC1D20 FPKM,P + I,18.427 FPKM
same,TDRD9 FPKM,P + I,1.888 FPKM
same,TIAM2 FPKM,P + I,0.301 FPKM
same,TM4SF1 FPKM,P + I,0.907 FPKM
same,TNFRSF4 FPKM,P + I,11.916 FPKM
same,TNFSF9 FPKM,P + I,2.651 FPKM
same,TNFSF14 FPKM,P + I,4.255 FPKM
same,TNS3 FPKM,P + I,1.418 FPKM
same,VAMP1 FPKM,P + I,14.752 FPKM
same,XCL1 FPKM,P + I,1.144 FPKM
same,XCL2 FPKM,P + I,2.074 FPKM
same,ZNF704 FPKM,P + I,0.183 FPKM
same,ZNF827 FPKM,P + I,1.372 FPKM
same,ABCB10 FPKM,P+I,9.751 FPKM
same,ACTG1 FPKM,P+I,799.981 FPKM
same,ADAM19 FPKM,P+I,4.257 FPKM
same,ADD3 FPKM,P+I,9.536 FPKM
same,ADORA2B FPKM,P+I,6.969 FPKM
same,AGO2 FPKM,P+I,14.51 FPKM
same,AIM1 FPKM,P+I,27.486 FPKM
same,APOBEC3A_B FPKM,P+I,14.665 FPKM
same,APOBEC3B FPKM,P+I,59.895 FPKM
same,APOBEC3C FPKM,P+I,14.323 FPKM
same,APOBEC3D FPKM,P+I,8.981 FPKM
same,APOL2 FPKM,P+I,102.003 FPKM
same,APOL6 FPKM,P+I,46.762 FPKM
same,AQP3 FPKM,P+I,52.98 FPKM
same,ARAP2 FPKM,P+I,13.458 FPKM
same,ARC FPKM,P+I,10.186 FPKM
same,ARHGAP23 FPKM,P+I,1.985 FPKM
same,ARHGEF6 FPKM,P+I,27.254 FPKM
same,ASAP1 FPKM,P+I,9.052 FPKM
same,ATG14 FPKM,P+I,11.252 FPKM
same,ATP2B4 FPKM,P+I,10.46 FPKM
same,ATXN1 FPKM,P+I,2.083 FPKM
same,BACH2 FPKM,P+I,36.118 FPKM
same,BAI2 FPKM,P+I,1.079 FPKM
same,BAIAP2-AS1 FPKM,P+I,2.144 FPKM
same,BATF3 FPKM,P+I,45.085 FPKM
same,BHLHE40 FPKM,P+I,9.368 FPKM
same,BTG1 FPKM,P+I,23.454 FPKM
same,C1QL1 FPKM,P+I,0.756 FPKM
same,C1orf233 FPKM,P+I,0.674 FPKM
same,C3 FPKM,P+I,1.329 FPKM
same,C9orf9 FPKM,P+I,6.009 FPKM
same,C10orf54 FPKM,P+I,0.487 FPKM
same,C16orf46 FPKM,P+I,3.705 FPKM
same,CASC15 FPKM,P+I,2.572 FPKM
same,CBX4 FPKM,P+I,11.578 FPKM
same,CBX6 FPKM,P+I,65.604 FPKM
same,CCDC64 FPKM,P+I,11.039 FPKM
same,CCDC71L FPKM,P+I,16.319 FPKM
same,CCL1 FPKM,P+I,0.415 FPKM
same,CCL3L1 FPKM,P+I,0.079 FPKM
same,CCL4 FPKM,P+I,4.062 FPKM
same,CCL4L1 FPKM,P+I,0.328 FPKM
same,CCL4L2 FPKM,P+I,0.328 FPKM
same,CCND2 FPKM,P+I,0.99 FPKM
same,CD1A FPKM,P+I,4.51 FPKM
same,CD1C FPKM,P+I,2.59 FPKM
same,CD1D FPKM,P+I,3.093 FPKM
same,CD27-AS1 FPKM,P+I,4.613 FPKM
same,CD27 FPKM,P+I,3.4 FPKM
same,CD55 FPKM,P+I,12.082 FPKM
same,CD69 FPKM,P+I,121.846 FPKM
same,CD83 FPKM,P+I,41.173 FPKM
same,CDCA7 FPKM,P+I,21.851 FPKM
same,CDT1 FPKM,P+I,11.831 FPKM
same,CFD FPKM,P+I,1.22 FPKM
same,CHI3L2 FPKM,P+I,51.627 FPKM
same,CHRNA9 FPKM,P+I,2.572 FPKM
same,CLEC2B FPKM,P+I,54.119 FPKM
same,CNR2 FPKM,P+I,0.552 FPKM
same,CORO2A FPKM,P+I,1.623 FPKM
same,CRIM1 FPKM,P+I,0.333 FPKM
same,CRTAM FPKM,P+I,9.51 FPKM
same,CSRNP1 FPKM,P+I,23.093 FPKM
same,CST7 FPKM,P+I,3.175 FPKM
same,CTDSPL FPKM,P+I,1.836 FPKM
same,CTTN FPKM,P+I,15.629 FPKM
same,CXCL3 FPKM,P+I,7.007 FPKM
same,CXCL9 FPKM,P+I,7.221 FPKM
same,CXCL10 FPKM,P+I,6.288 FPKM
same,CXCR3 FPKM,P+I,1.803 FPKM
same,CYB5RL FPKM,P+I,1.449 FPKM
same,DFNA5 FPKM,P+I,9.395 FPKM
same,DHFR FPKM,P+I,6.668 FPKM
same,DNAJB11 FPKM,P+I,109.967 FPKM
same,DNAJC1 FPKM,P+I,13.844 FPKM
same,DNPEP FPKM,P+I,43.482 FPKM
same,DOK2 FPKM,P+I,27.542 FPKM
same,DPY19L2P2 FPKM,P+I,2.643 FPKM
same,DPYSL2 FPKM,P+I,9.177 FPKM
same,DTX3L FPKM,P+I,48.261 FPKM
same,DUSP2 FPKM,P+I,97.06 FPKM
same,DUSP5 FPKM,P+I,157.077 FPKM
same,E2F1 FPKM,P+I,8.062 FPKM
same,E2F2 FPKM,P+I,3.419 FPKM
same,EIF2AK3 FPKM,P+I,9.816 FPKM
same,ENC1 FPKM,P+I,9.268 FPKM
same,ENHO FPKM,P+I,1.223 FPKM
same,ENPP1 FPKM,P+I,51.27 FPKM
same,EPAS1 FPKM,P+I,4.197 FPKM
same,EPHA3 FPKM,P+I,2.536 FPKM
same,ERO1LB FPKM,P+I,4.345 FPKM
same,ETV5 FPKM,P+I,13.264 FPKM
same,EVI2A FPKM,P+I,10.047 FPKM
same,FAM46C FPKM,P+I,5.693 FPKM
same,FAM111B FPKM,P+I,4.22 FPKM
same,FASLG FPKM,P+I,1.715 FPKM
same,FBXO34 FPKM,P+I,18.386 FPKM
same,FMNL2 FPKM,P+I,3.019 FPKM
same,FOS FPKM,P+I,4.53 FPKM
same,FOXO1 FPKM,P+I,3.736 FPKM
same,FST FPKM,P+I,6.872 FPKM
same,FURIN FPKM,P+I,29.008 FPKM
same,FYB FPKM,P+I,10.258 FPKM
same,GAMT FPKM,P+I,11.98 FPKM
same,GBP1 FPKM,P+I,87.487 FPKM
same,GBP2 FPKM,P+I,38.881 FPKM
same,GBP3 FPKM,P+I,68.757 FPKM
same,GBP4 FPKM,P+I,9.209 FPKM
same,GBP5 FPKM,P+I,262.945 FPKM
same,GDPD5 FPKM,P+I,39.139 FPKM
same,GEM FPKM,P+I,2.963 FPKM
same,GINS2 FPKM,P+I,16.516 FPKM
same,GLIPR2 FPKM,P+I,11.773 FPKM
same,GNAQ FPKM,P+I,17.078 FPKM
same,GNG2 FPKM,P+I,17.754 FPKM
same,GPR3 FPKM,P+I,9.964 FPKM
